The target in series [1] is membrane-bound tripeptidylpeptidase II (Rattus norvegicus, UniProt Q64560). As to the kind of experiment: Measurement of the activity of membrane-bound tripeptidylpeptidase (release of Amc from A-AP-Amc, fluorimetry). The conditions noted are these: apparent dissociation constant calculated from the 50% inhibitory concentration and the KM of the substrate (23 μM), rat brain membranes, 50 μM A-AP-Amc.
Experimental: Membranes from rat brain were obtained by centrifugation (200,000×g min) of a homogenate prepared in 10 volumes of 50 mM potassium phosphate buffer, pH 7.4.
After washing thoroughly, the centrifugation pellet is taken up in the buffer containing 10% glycerol and 0.1% Brij 35 in order to obtain a concentration of 25 mg of proteins/ml.
The release of Amc is evaluated by fluorimetry.

Counter-ions that a name gives are not always drawn. Where a SMILES comes first, the peptide text is derived from it. [ ]: non-standard residue; d: D form. The star is where a group is joined. ξ: configuration not given here. Pro(cis-4-F) = O=C(O)[C@@H]1C[C@H](F)CN1; Tic = O=C(O)[C@@H]1Cc2ccccc2CN1; Abu = CC[C@H](N)C(=O)O; ξAbu = CCC(N)C(=O)O; NHBu = CCCCN*; NHPr = CCCN*

Consider 41 molecules from patent US6403561B1, “Tripeptidylpeptidase inhibitors” (Institut National de la Sante et de la Recherche Medicale …, priority 1998, dated 2002).

Sequence of membrane-bound tripeptidylpeptidase II (Q64560 whole entry): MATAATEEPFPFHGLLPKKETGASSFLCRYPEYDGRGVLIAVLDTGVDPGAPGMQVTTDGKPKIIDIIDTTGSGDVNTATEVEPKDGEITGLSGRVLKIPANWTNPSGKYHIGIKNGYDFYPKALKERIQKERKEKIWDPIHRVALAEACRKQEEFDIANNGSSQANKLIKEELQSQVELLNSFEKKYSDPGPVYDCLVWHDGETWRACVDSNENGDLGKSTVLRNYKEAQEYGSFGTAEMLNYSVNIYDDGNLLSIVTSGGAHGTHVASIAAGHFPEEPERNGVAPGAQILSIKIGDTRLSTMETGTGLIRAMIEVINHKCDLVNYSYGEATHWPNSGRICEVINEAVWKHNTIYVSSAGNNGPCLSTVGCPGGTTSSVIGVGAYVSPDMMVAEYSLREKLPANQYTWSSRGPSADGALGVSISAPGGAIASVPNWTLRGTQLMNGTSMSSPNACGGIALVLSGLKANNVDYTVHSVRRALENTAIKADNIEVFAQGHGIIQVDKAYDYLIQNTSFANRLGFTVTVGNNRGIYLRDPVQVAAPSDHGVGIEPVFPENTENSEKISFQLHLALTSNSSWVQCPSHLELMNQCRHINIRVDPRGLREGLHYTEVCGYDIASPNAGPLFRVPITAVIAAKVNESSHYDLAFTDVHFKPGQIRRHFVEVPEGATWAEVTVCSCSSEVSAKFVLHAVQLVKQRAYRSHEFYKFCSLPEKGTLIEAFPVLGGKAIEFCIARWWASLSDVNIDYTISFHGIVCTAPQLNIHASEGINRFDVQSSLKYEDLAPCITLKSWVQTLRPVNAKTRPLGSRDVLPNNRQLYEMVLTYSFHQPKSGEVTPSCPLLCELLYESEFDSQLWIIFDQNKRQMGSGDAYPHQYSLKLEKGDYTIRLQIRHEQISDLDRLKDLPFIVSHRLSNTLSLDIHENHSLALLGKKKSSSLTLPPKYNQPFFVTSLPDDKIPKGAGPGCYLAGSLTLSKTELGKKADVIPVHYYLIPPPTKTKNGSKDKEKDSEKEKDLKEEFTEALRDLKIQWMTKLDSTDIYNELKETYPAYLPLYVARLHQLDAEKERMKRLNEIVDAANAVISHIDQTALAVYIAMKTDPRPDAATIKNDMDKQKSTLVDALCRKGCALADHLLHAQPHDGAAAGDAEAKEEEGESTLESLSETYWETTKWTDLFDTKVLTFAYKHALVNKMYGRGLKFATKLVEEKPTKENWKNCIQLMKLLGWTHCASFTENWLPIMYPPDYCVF

Turning to `CCNC(=O)[C@@H]1Cc2ccccc2N1C(=O)[C@@H](N)CC` [Example 17, 1-(2(S)-aminobutyryl)-2(s)-indolinecarboxylic Acid ethylamide], the melting point (as a rule, the temperature, or range, at which the solid turns liquid) lay in the range of 115 to 120 °C.

`CCCCNC(=O)C1Cc2cc(OC)ccc2N1C(=O)[C@H](C)N` (mixture of isomers) [Example 25, 1-(L-alanyl)-5-methoxyindoline-2(R/S)-carboxylic Acid Butylamide Oxalate]: in series [1] (Ki), the Ki was 26 nM.

`CCCCNC(=O)C1Cc2cc(OC)ccc2N1C(=O)[C@@H](N)C(C)C.O=C(O)C(=O)O` (mixture of isomers) [Example 24, 1-(L-valyl)-5-methoxyindoline-2(R/S)-carboxylic Acid Butylamide Oxalate] displayed a melting point of 112 to 120 °C.

Turning to `CCCCNC(=O)[C@H]1Cc2cc(OC)ccc2N1C(=O)[C@@H](N)CC` [18 (S,R) isomer], the Ki in series [1] (Ki) is 241 nM.

`CCCCNC(=O)C1C(C)c2ccccc2N1C(=O)C(N)CC` (single isomer, unassigned) [Example 29]: the Ki in series [1] (Ki) is 593 nM.

With `CCCCNC(=O)C1N(C(=O)[C@@H](N)CC)c2ccccc2C1(C)C` (mixture of isomers) [Example 28, 1-(2(S)-aminobutyryl)-3,3-dimethylindoline-2(R/S)-carboxylic Acid Butylamide Oxalate], the Ki in series [1] (Ki) was 864 nM.

`CCC(N)C(=O)N1CCC[C@H]1C(N)=O` (stereo partly drawn) [2 (S)-aminobutyryl-L-prolineamide, reference compound] (H-[ξAbu]-Pro-NH2): in series [1] (Ki), the Ki was 570 nM.

`CCCCNC(=O)C1Cc2cc(OC)ccc2N1C(=O)[C@@H](N)CC` (mixture of isomers) (as salt: oxalate) [Example 18, 1-(2(S)-amino-butyryl)-2(R/S)-(5-methoxy)indolinecarboxylic Acid n-butylamide] had a melting point of 95 to 105 °C.

As for `CC[C@H](C)CNC(=O)[C@@H]1CCCN1C(=O)[C@@H](N)CC` [Example 5, 1-(2(S)-aminobutyryl)-L-proline [2(S)methyl]butylamide], the Ki in series [1] (Ki) is 500 nM.

The molecule `CC[C@H](C)CNC(=O)[C@@H]1CCCN1C(=O)[C@@H](N)CC` (as salt: oxalate) [Example 5, 1-(2(S)-aminobutyryl)-L-proline [2(S)methyl]butylamide] gave a melting point of 135 to 136 °C.

`CCCCNC(=O)C1c2ccccc2CN1C(=O)[C@@H](N)CC` (mixture of isomers) (as salt: oxalate) [Example 23, 2-(2(S)-aminobutyryl)-1-(R/S)-isoindolinecarboxylic Acid N-butylamide] displayed a melting point of 90 to 92 °C.

Molecule `CCCCNC(=O)C1Cc2c(ccc(OC)c2OC)N1C(=O)[C@@H](N)CC.O=C(O)C(=O)O` (mixture of isomers) [Example 32, 1-(2(S)-aminobutyryl)-4,5-dimethoxyindoline-2(R/S)-carboxylic Acid Butylamide Oxalate] registered a melting point of 196.1 to 197.5 °C.

Molecule `CCCCNC(=O)C1Cc2cc(F)ccc2N1C(=O)[C@@H](N)CC` (mixture of isomers) (as salt: oxalate) [Example 20, 1-(2(S)-aminobutyryl)-2(R/S)-(5-fluoro)indolinecarboxylic Acid N-butylamide] displayed a melting point of 105 to 110 °C.

As to `CCCCCCNC(=O)[C@@H]1CCCN1C(=O)[C@@H](N)C(C)C` [Example 1, L-valyl-L-proline n-hexylamide], in series [1] (Ki), the Ki was 900 nM.

Molecule `CCCCNC(=O)C1Cc2cc(OC)ccc2N1C(=O)[C@H](C)N.O=C(O)C(=O)O` (mixture of isomers) [Example 25, 1-(L-alanyl)-5-methoxyindoline-2(R/S)-carboxylic Acid Butylamide Oxalate] came in with a melting point of 112 to 118 °C.

Molecule `CCCCNC(=O)C1Cc2cc(O)ccc2N1C(=O)[C@@H](N)CC.O=C(O)C(=O)O` (mixture of isomers) [Example 34, 1-2(S)-aminobutyryl-5-hydroxyindoline-2(R/S)-carboxylic Acid Butylamide Oxalate] returned a melting point of 129 to 130 °C.

`CCCCNC(=O)[C@@H]1Cc2ccccc2CN1C(=O)[C@@H](N)CC` [Example 13, 2-(2(S)-amino-butyryl)-1,2,3,4-tetrahydro-3(S)-isoquinolinecarboxylic Acid n-butylamide] (H-[Abu]-[Tic]-NHBu): the Ki in series [1] (Ki) is 40 nM.

`CCCCNC(=O)[C@@H]1Cc2cc(Cl)ccc2N1C(=O)[C@@H](N)CC.O=C(O)C(F)(F)F` [Example 36, 1-(2(S)-aminobutyryl)-5-chloroindoline-2(S)-carboxylic Acid Butylamide Trifluoroacetate] displayed a melting point of 83 to 84 °C.

For `CCCCNC(=O)C1Cc2ccc(OC)cc2N1C(=O)[C@@H](N)CC` (mixture of isomers) [Example 19, 1-(2(S)-aminobutyryl)-2(R/S)-(6-methoxy)indolinecarboxylic acid n-butylamide], the Ki in series [1] (Ki) was 77 nM.

Regarding `CCCCNC(=O)[C@@H]1C[C@H](F)CN1C(=O)[C@@H](N)CC` [Example 11, 1-(2(S)-amino-butyryl)-(4(S)-fluoro)-L-proline n-butylamide] (H-[Abu]-[Pro(cis-4-F)]-NHBu), the Ki in series [1] (Ki) is 320 nM.

With `CCCCNC(=O)[C@@H]1CCCN1C(=O)[C@@H](N)C(C)C` [Example 8, L-valyl-L-proline n-butylamide] (H-Val-Pro-NHBu), the Ki in series [1] (Ki) was 570 nM.

With `CCCCNC(=O)C1Cc2cc(C)ccc2N1C(=O)[C@@H](N)CC.O=C(O)C(=O)O` (mixture of isomers) [Example 35, 1-2(S)-aminobutyryl-5-methylindoline-2(R/S)-carboxylic Acid Butylamide Oxalate], the melting point is 110 to 112 °C.

For `CCCCNC(=O)C1Cc2cc(O)ccc2N1C(=O)[C@@H](N)CC` (mixture of isomers) [Example 34, 1-2(S)-aminobutyryl-5-hydroxyindoline-2(R/S)-carboxylic Acid Butylamide Oxalate], the Ki in series [1] (Ki) is 10.4 nM.

Turning to `CCCCNC(=O)C1Cc2cc(C)ccc2N1C(=O)[C@@H](N)CC` (mixture of isomers) [Example 35, 1-2(S)-aminobutyryl-5-methylindoline-2(R/S)-carboxylic Acid Butylamide Oxalate], the Ki in series [1] (Ki) was 22.6 nM.

Take `CCCCNC(=O)C1Cc2cc(OC)ccc2N1C(=O)[C@@H](N)CC` (mixture of isomers) [Example 18, 1-(2(S)-amino-butyryl)-2(R/S)-(5-methoxy)indolinecarboxylic Acid n-butylamide]: in series [1] (Ki), the Ki was 8 nM.

In turn, `CCCCCCNC(=O)[C@@H]1CCCN1C(=O)[C@@H](N)C(C)C` (as salt: oxalate) [Example 1, L-valyl-L-proline n-hexylamide] registered a melting point of 146 to 147 °C.

With `CCCCNC(=O)[C@@H]1CCCN1C(=O)[C@@H](N)CC` [Example 4, 1-(2(S)-amino-butyryl)-L-proline n-butylamide] (H-[Abu]-Pro-NHBu), in series [1] (Ki), the Ki is 100 nM.

For the molecule `CCCCNC(=O)C1Cc2cc(F)ccc2N1C(=O)[C@@H](N)CC` (mixture of isomers) [Example 20, 1-(2(S)-aminobutyryl)-2(R/S)-(5-fluoro)indolinecarboxylic Acid N-butylamide], the Ki in series [1] (Ki) is 12 nM.

Turning to `CCCCNC(=O)C1C(C)c2ccccc2N1C(=O)C(N)CC` (single isomer, unassigned) [Example 30], the Ki in series [1] (Ki) is 32 nM.

For `CCCCNC(=O)C1Cc2c(OC)cccc2N1C(=O)[C@@H](N)CC` (mixture of isomers) [Example 27, 1-(2(S)-aminobutyryl)-4-methoxyindoline-2(R/S)-carboxylic Acid Butylamide Oxalate], in series [1] (Ki), the Ki was 14 nM.

As for `CCCCNC(=O)C1Cc2cc(OCc3ccccc3)ccc2N1C(=O)[C@@H](N)CC` (mixture of isomers) [Example 21], the Ki in series [1] (Ki) was 1000 nM.

For the molecule `CCCCCNC(=O)[C@@H]1CCCN1C(=O)[C@@H](N)CC` [Example 3, 1-(2(S)-aminobutyryl)-L-proline n-pentylamide], the Ki in series [1] (Ki) is 270 nM.

In the case of `CCCNC(=O)[C@@H]1CCCN1C(=O)[C@@H](N)CC` [Example 6, 1-(2(S)-amino-butyryl)-L-proline n-propylamide] (H-[Abu]-Pro-NHPr), the Ki in series [1] (Ki) was 80 nM.

In the case of `CC[C@H](N)C(=O)N1CCC[C@H]1C(=O)NCC(C)C` [Example 7, 1-(2(S)-amino-butyryl)-L-proline isobutylamide], in series [1] (Ki), the Ki was 320 nM.

For the molecule `CCCCNC(=O)C1c2ccccc2CN1C(=O)[C@@H](N)CC` (mixture of isomers) [Example 23, 2-(2(S)-aminobutyryl)-1-(R/S)-isoindolinecarboxylic Acid N-butylamide], in series [1] (Ki), the Ki was 143 nM.

Turning to “L-alanyl-L-prolyldifluoro-L-borovaline borohydride [Example 10]”, the Ki in series [1] is 0.3 nM.

Take `CCCCNC(=O)C1Cc2cc(OC)ccc2N1C(=O)[C@@H](N)C(C)C` (mixture of isomers) [Example 24, 1-(L-valyl)-5-methoxyindoline-2(R/S)-carboxylic Acid Butylamide Oxalate]: the Ki in series [1] (Ki) is 146 nM.

As to `CCCCNC(=O)C1Cc2c(ccc(OC)c2OC)N1C(=O)[C@@H](N)CC` (mixture of isomers) [Example 32, 1-(2(S)-aminobutyryl)-4,5-dimethoxyindoline-2(R/S)-carboxylic Acid Butylamide Oxalate], the Ki in series [1] (Ki) is 9.6 nM.

For `CC[C@H](N)C(=O)N1CCC[C@H]1C(=O)NCCCSC` [Example 2, 1-(2(S)-amino-butyryl)-L-proline 3-(methylthio)propylamide], in series [1] (Ki), the Ki is 300 nM.

Consider `CCCCNC(=O)[C@@H]1C[C@H](Cc2ccccc2)CN1C(=O)[C@@H](N)CC` [Example 12, 1-(2(S)-aminobutyryl)-(4(S)-benzyl)-L-proline n-butylamide], for which, in series [1], the Ki is 140 nM.

In the case of `CCCCNC(=O)[C@@H]1Cc2cc(OC)ccc2N1C(=O)[C@@H](N)CC` [18 (S,S) isomer], the Ki in series [1] (Ki) is 6 nM.
